Experiments:
[1] = test system: proximal tubular epithelial cells (PTECs); assay: Proliferation of PTECs cultured in glucose-rich medium (MTT); format: cell-based; details: for OD value: 72 h, 570 nm
Experimental: A 1000 mg/L stock solution of RA in DMEM medium was prepared, and filtered through 0.22 μm microfilter to remove bacteria. The stock was then aliquoted in appropriate containers and stored at −20° C. in darkness. It is good for use within 2 weeks. DMEM supplemented with 2% fetal bovine serum (FBS) was used to dilute the stock to desired concentrations before use.
Remove frozen vials storing PTECs from liquid nitrogen, thaw in water bath at 37° C. for 5 min, centrifuge at 1000 r·min^−1 for 5 min, and discard the supernatant. Blow up the cells with culture medium and transfer them into flasks for static culture. The medium was DMEM supplemented with 10 v % FBS, 1×10^5 U·L^−1 penicillin, 100 mg·L^−1 streptomycin. The cells are cultured at 37° C., 5% CO2, and saturated humidity for 2-3 days before 0.25% trypsin were used to digest the cells which were then passaged.
PTEC cells at logarithmic phase were seeded to 96-well plate at the density of 1×10^5/mL. The medium was replaced with serum-free DMEM 24 hours later and the cell culture was cultured statically for 24 hours. Discard the supernatant, dose the wells according to table 3: normal control group (NG, 5 mmol·L^−1), high glucose group (HG, 30 mmol·L^−1), NG+10 mg/L RA group, NG+50 mg/L of RA group, HG+10 mg/L of RA group, HG50 mg/L of RA group, with 6 wells in each group. Incubate for 72 hours respectively. Add 20 μL of MTT (5 mg·mL^−1) to each well 4 hours before the experiment is terminated. Remove supernatant 4 hours later, and 150 μL of DMSO was added to each well, shake for 10 min and use ELISA reader to determine OD value at 570 nm.

CRF rats = assay: CRF induced by 5/6 nephrectomy in rats; format: in vivo, Sprague Dawley rats

In the case of O=C(/C=C/c1ccc(O)c(O)c1)O[C@H](Cc1ccc(O)c(O)c1)C(=O)O [RA, R(+)2-{[3-(3,4-dihydroxylphenyl-(oxo-2-propenyl)oxy]3,4-dihydroxylphenylpropionic acid]}], the OD value ([1]; HG (30 mmol/L glucose) + 10 mg/L RA) was 1.289 ± 0.041, the OD value ([1]; HG (30 mmol/L glucose) + 50 mg/L RA) was 1.317 ± 0.077 and the OD value ([1]; NG (5 mmol/L glucose) + 10 mg/L RA) was 1.168 ± 0.106. For the same compound, the OD value ([1]; NG (5 mmol/L glucose) + 50 mg/L RA) was 1.052 ± 0.036, the “PTECs proliferation induced by high level of glucose” value ([1]; certain concentrations of RA, P<0.05) was “can inhibit PTECs proliferation induced by high level of glucose” and the Serum creatinine (CRF rats; 4 weeks, i.v. 2.5 mg/kg) was 1.32 ± 0.18 mg/dL. It also gave a Serum urea nitrogen (CRF rats; 4 weeks, i.v. 2.5 mg/kg) of 21.12 ± 2.40 mg/dL, a Serum creatinine (CRF rats; 4 weeks, i.v. 5 mg/kg) of 1.29 ± 0.31 mg/dL and a Serum urea nitrogen (CRF rats; 4 weeks, i.v. 5 mg/kg) of 16.90 ± 4.09 mg/dL. The Serum creatinine (CRF rats; 4 weeks, i.v. 25 mg/kg) was 1.12 ± 0.24 mg/dL, the Serum urea nitrogen (CRF rats; 4 weeks, i.v. 25 mg/kg) was 14.63 ± 3.25 mg/dL and the Serum creatinine (CRF rats; 4 weeks, i.v. 75 mg/kg) was 1.02 ± 0.19 mg/dL. It also gave a Serum urea nitrogen (CRF rats; 4 weeks, i.v. 75 mg/kg) of 13.39 ± 2.45 mg/dL, a Serum creatinine (CRF rats; 4 weeks, i.v. 150 mg/kg) of 1.01 ± 0.33 mg/dL and a Serum urea nitrogen (CRF rats; 4 weeks, i.v. 150 mg/kg) of 12.85 ± 3.88 mg/dL. For the same compound, the Serum creatinine (CRF rats; 4 weeks, p.o. 5 mg/kg) was 1.55 ± 0.16 mg/dL, the Serum creatinine (CRF rats; 4 weeks, p.o. 10 mg/kg) was 1.42 ± 0.24 mg/dL and the Serum urea nitrogen (CRF rats; 4 weeks, p.o. 10 mg/kg) was 18.60 ± 3.11 mg/dL. It also gave a Serum creatinine (CRF rats; 4 weeks, p.o. 50 mg/kg) of 1.53 ± 0.15 mg/dL, a Serum creatinine (CRF rats; 4 weeks, p.o. 150 mg/kg) of 1.30 ± 0.22 mg/dL and a Serum urea nitrogen (CRF rats; 4 weeks, p.o. 150 mg/kg) of 17.01 ± 3.95 mg/dL. For the same compound, the Serum creatinine (CRF rats; 4 weeks, p.o. 300 mg/kg) was 1.29 ± 0.28 mg/dL, the Serum urea nitrogen (CRF rats; 4 weeks, p.o. 300 mg/kg) was 16.76 ± 4.30 mg/dL and the Serum creatinine (CRF rats; 8 weeks, i.v. 2.5 mg/kg) was 1.89 ± 0.22 mg/dL. For the same compound, the Serum urea nitrogen (CRF rats; 8 weeks, i.v. 2.5 mg/kg) was 22.15 ± 3.09 mg/dL, the Serum creatinine (CRF rats; 8 weeks, i.v. 5 mg/kg) was 1.75 ± 0.37 mg/dL and the Serum urea nitrogen (CRF rats; 8 weeks, i.v. 5 mg/kg) was 21.73 ± 5.26 mg/dL. For the same compound, the Serum creatinine (CRF rats; 8 weeks, i.v. 25 mg/kg) was 1.51 ± 0.32 mg/dL, the Serum urea nitrogen (CRF rats; 8 weeks, i.v. 25 mg/kg) was 19.25 ± 3.19 mg/dL and the Serum creatinine (CRF rats; 8 weeks, i.v. 75 mg/kg) was 1.39 ± 0.26 mg/dL. For the same compound, the Serum urea nitrogen (CRF rats; 8 weeks, i.v. 75 mg/kg) was 15.07 ± 3.45 mg/dL, the Serum creatinine (CRF rats; 8 weeks, i.v. 150 mg/kg) was 1.37 ± 0.44 mg/dL and the Serum urea nitrogen (CRF rats; 8 weeks, i.v. 150 mg/kg) was 14.85 ± 3.88 mg/dL. The Serum creatinine (CRF rats; 8 weeks, p.o. 5 mg/kg) was 2.09 ± 0.22 mg/dL, the Serum creatinine (CRF rats; 8 weeks, p.o. 10 mg/kg) was 2.06 ± 0.21 mg/dL and the Serum urea nitrogen (CRF rats; 8 weeks, p.o. 10 mg/kg) was 25.65 ± 2.57 mg/dL. It also gave a Serum urea nitrogen (CRF rats; 8 weeks, p.o. 50 mg/kg) of 23.91 ± 4.00 mg/dL, a Serum creatinine (CRF rats; 8 weeks, p.o. 150 mg/kg) of 1.76 ± 0.30 mg/dL and a Serum urea nitrogen (CRF rats; 8 weeks, p.o. 150 mg/kg) of 21.96 ± 3.95 mg/dL. The Serum urea nitrogen (CRF rats; 8 weeks, p.o. 300 mg/kg) was 20.76 ± 5.50 mg/dL, the “serum creatinine and urea nitrogen levels vs model group” value (CRF rats; i.v. 2.5, 5, 25, 75, 150 mg/kg, p.o. 5, 10, 50, 150, 300 mg/kg) was “can all significantly reduce serum creatinine and urea nitrogen levels” and the “renal pathological changes (HE, PAS)” value (CRF rats; week 4) was “alleviated in RA treated animals in a dose-dependent manner”.

From US20100130604A1, “USE OF ROSMARINIC ACID IN MANUFACTURE OF MEDICAMENTS FOR TREATING OR PREVENTING HEPATIC AND RENAL DISEASES” (SHANGDONG LUYE NATURAL DRUG RESEARCH AND DEVELOPMENT CO., …, priority 2006, published 2010)
